The text below walks through data of patent publication US9353089B2, “Compositions and methods for the treatment of malaria” (Saint Louis University, priority 2013, dated 2016).

Data set [1] can be described thus: HLM metabolic stability assay. It is filed as in vitro ADME. Particulars: pH 7.4, human liver microsomes, read-out: HLM t1/2. On the procedure:
(§1) In this protocol, the metabolic stability of compounds at 1 μM was determined in Mouse Liver Microsome (MLM), rat liver microsomes (RLM) or human liver microsomes (HLM). […]. After incubation at 37° C. for a specific time period (0, 5, 10, 20 and 30 min), the reaction was terminated by the addition of 200 μL ice cold acetonitrile containing internal standard (100 ng/mL) after 100 μL aliquots of reaction mixture was removed. The quenched reaction mixtures were centrifuged at 3200 rpm for 5 min, and 100 μL of the supernatant were transferred to 96-well deep plate. The samples in 96 well plate were analyzed by LC-MS/MS using an Applied Biosystems-Sciex model API 3000 mass spectrometer. The data were analyzed using the following equations. […]
Background: Liver microsomes are a subcellular fraction often used to study metabolism.

The nature of data set [2]: Rat pharmacokinetic (PK) analysis. It is filed as in vivo. Conditions: for half-life: male, SD, plasma, read-out: Rat PK t1/2 (converted). On the procedure: Male SD rats, weighing 180-220 g (Southern China Medical University, China) were utilized for the studies. Animals were maintained on standard animal chow and water ad libitum, in a climate controlled room (23±1° C.), 30-70% relative humidity, a minimum of 10 exchanges of room air per hour and a 12-h light/dark cycle) for one week prior to experiments. The test compound was dissolved in suitable solvent. Pharmacokinetic properties were determined following i.v. and oral administration. Animals were randomly distributed into two experimental groups (n=4). The oral groups were given 5 mg/kg of the test compound by gastric gavage. The other group was dosed by injection into the tail vein (1 mg/kg). […]; 2, 10, 30 min and 1, 2, 3, 4, 6, 8, 11 and 24 h (i.v.). Whole blood samples were collected in heparinized tubes. The plasma fraction was immediately separated by centrifugation (8,000 rpm, 6 min, 4° C.) and stored at −20° C. until LC-MS analysis. The rats were humanely euthanasia by carbon dioxide 24 hours after experiment without pain.
Plasma Sample Analysis. Standard Curve Sample Preparation:
The compound was dissolved in DMSO at a concentration of 2 mg/mL and diluted with 50% methanol solution to series concentration as follow: 20, 50, 100, 500, 1000, 2000, 4000, 6000, 12000, 40000 ng/mL. 10 μL series concentration solution and 50 μL blank plasma were added to 1.5 mL tube and vortex for 3 min, then 150 μL acetonitrile containing internal standard were added and vortex for 5 min, finally spin tube in centrifuge at 16000 g for 40 min at 4° C. Plasma sample preparation: The plasma samples were prepared using protein precipitation method. […] LC/MS/MS analysis: After centrifuge, 100 μL supernatant was transfer to the 96 well plate and analyzed by LC-MS/MS using an Applied Biosystems-Sciex model API 3000 mass spectrometer. The pharmacokinetics parameters were calculated by analyzing the compound concentration in plasma samples using the pharmacokinetic software DAS.2.0.

A short description of data set [3]: MLM metabolic stability assay. The class given is in vitro ADME. Conditions: pH 7.4, mouse liver microsomes, read-out: MLM t1/2. On the procedure:
as §1

Turning to `COc1ccc(C2(c3ccc(OC)cc3)NC(=N)N(C3CCOCC3)C2=O)cc1` [Example 176, 2-imino-5,5-bis(4-methoxyphenyl)-3-(oxan-4-yl)-imidazolidin-4-one], the half-life at 1 μM in data set [1] stood at 36 min. The “Rat PK oral bioavailability (% F)” value in data set [2] (5 mg/kg oral, 1 mg/kg i.v.) is 21 % F. Moreover, the half-life in data set [2] was 66 min.

As for `COc1ccc(C2(c3ccc(OC)cc3)NC(=N)N(C3CCN(C(=O)OC(C)(C)C)CC3)C2=O)cc1` [Example 206, tert-butyl 4-[2-imino-4,4-bis(4-methoxyphenyl)-5-oxoimidazolidin-1-yl]piperidine-1-carboxylate], the half-life at 1 μM in data set [3] came out at 26 min. In data set [2], the half-life is 72 min.
